Among the test systems are Hs-578T; SN12C; K562; MDA-MB-435; U-251; OVCAR-4; SNB-19; BT-549; SK-MEL-5; RXF 393; ACHN; SR; M14; NCI-H226; SW-620; HCT-15; A549; UACC-257; SF-268; HOP-92.
Common to all, as to experiment: NCI anticancer screen, dose series, 48 h

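Compound exposure: 48 hours, 5 concentrations, 96-well plates. Here, GI50 denotes the concentration required for 50% inhibition of growth.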 Active and inactive are the calls of the source. Cut-off read from the data, not from the text of the source: active = GI50 up to about 1.1 µM and inactive = higher.

Turning to `Cc1csc2n(C)c(=O)c3ccccc3[n+]12`, the GI50 in the assay with Hs-578T, with SN12C, in the assay on K562, with MDA-MB-435, in the assay on U-251 and in the assay with OVCAR-4 was > 100 µM (inactive) throughout. The GI50 is > 100 µM (inactive) with SNB-19; 79.4 µM (inactive) in the assay with BT-549; 98.4 µM (inactive) in the assay with SK-MEL-5; > 100 µM (inactive) with RXF 393; > 100 µM (inactive) in the assay with ACHN; > 100 µM (inactive) in the assay on SR. Besides, the GI50 was > 100 µM (inactive) in the assay on M14; > 100 µM (inactive) in the assay with NCI-H226; > 100 µM (inactive) in the assay on SW-620; more than 100 µM in the assay on HCT-15; > 100 µM (inactive) in the assay on A549; > 100 µM (inactive) with UACC-257. The GI50 in the assay with SF-268 was > 100 µM (inactive).
Regarding `COc1ccc2[nH]c3c(C)c4ccnc(NCCCN(C)CCCNc5ccc([N+](=O)[O-])c6[nH]c7ccccc7c(=O)c56)c4c(C)c3c2c1`, the GI50 was 0.604 µM (active) in the assay with Hs-578T; 0.0524 µM (active) with SN12C; 0.00652 µM (active) in the assay with K562; 0.471 µM (active) in the assay with MDA-MB-435; 0.0887 µM (active) in the assay with U-251; 0.132 µM (active) in the assay on OVCAR-4. In addition, the GI50 in the assay on SNB-19 was 0.284 µM (active); in the assay with BT-549 it was 0.678 µM (active); in the assay with SK-MEL-5 it was 0.11 µM (active); in the assay with RXF 393, 0.0396 µM (active); with ACHN it was 0.0207 µM (active); in the assay on SR, 0.0114 µM (active). The GI50 in the assay on M14 is 0.422 µM (active); in the assay on NCI-H226 it was 0.421 µM (active); with SW-620, 0.00811 µM (active); in the assay on HCT-15, 0.0295 µM; with A549, 0.0372 µM (active); in the assay on UACC-257, 0.655 µM (active). Besides, the GI50 with SF-268 was 0.52 µM (active).
Consider `O=[N+]([O-])C(/C(Cl)=C(/Cl)N1CCOCC1)=C1\Nc2ccccc2O1`, for which the GI50 in the assay on Hs-578T is > 100 µM (inactive); in the assay with SN12C, > 100 µM (inactive); in the assay on K562, > 100 µM (inactive); in the assay with MDA-MB-435, > 100 µM (inactive); in the assay with U-251 it was 86.9 µM (inactive); in the assay on OVCAR-4 it was > 100 µM (inactive). Further, the GI50 in the assay on SNB-19, in the assay with BT-549, in the assay on ACHN, with M14, in the assay on NCI-H226 and in the assay with SW-620 was > 100 µM (inactive) in each case. The GI50 was more than 100 µM with HCT-15, > 100 µM (inactive) in the assay on A549, 15 µM (inactive) in the assay on UACC-257 and 28.9 µM (inactive) in the assay on SF-268.
Take `CCC(C=O)P1(=O)OC(C)(C)CN1C(C)(C)C` (stereo not drawn): the GI50 is 77.8 µM (inactive) with K562; 99.5 µM (inactive) in the assay with MDA-MB-435; > 100 µM (inactive) in the assay on U-251; > 100 µM (inactive) with OVCAR-4; > 100 µM (inactive) with SNB-19; > 100 µM (inactive) in the assay with BT-549. In addition, the GI50 in the assay with SK-MEL-5, with ACHN, in the assay on SR, in the assay on M14, in the assay on NCI-H226 and in the assay with SW-620 was > 100 µM (inactive) throughout. The GI50 in the assay with HCT-15 was 99.8 µM; with A549 it was > 100 µM (inactive); in the assay on UACC-257, > 100 µM (inactive); with SF-268, 88.3 µM (inactive).
Regarding `COC(=O)C(CCSC)NC(=O)CNC(=O)CSc1nnc(COc2ccc(Cl)cc2)n1-c1ccccc1` (stereo not drawn), the GI50 is 22.3 µM (inactive) in the assay on Hs-578T; 18.4 µM (inactive) in the assay with SN12C; 26.5 µM (inactive) with K562; 17.9 µM (inactive) in the assay with MDA-MB-435; 17.3 µM (inactive) with U-251; 19.3 µM (inactive) in the assay on OVCAR-4. Also, the GI50 is 17.6 µM (inactive) in the assay with HOP-92; 69.3 µM (inactive) with SNB-19; 16.9 µM (inactive) in the assay with BT-549; 17.3 µM (inactive) with SK-MEL-5; 18.6 µM (inactive) in the assay with RXF 393; 17 µM (inactive) in the assay on ACHN. For the same compound, the GI50 is 19.5 µM (inactive) in the assay on M14; 18.8 µM (inactive) in the assay on NCI-H226; 20.3 µM (inactive) in the assay with SW-620; 18.3 µM in the assay on HCT-15; 41.3 µM (inactive) in the assay with A549; 18.3 µM (inactive) in the assay with UACC-257. For the same compound, the GI50 in the assay with SF-268 was 17.1 µM (inactive).
For `COc1cc(/C=C2\N=C(C)N(n3c(-c4ccccc4)nc4ccccc4c3=O)C2=O)cc(OC)c1OC`, the GI50 in the assay with Hs-578T, in the assay with SN12C, in the assay on K562, with MDA-MB-435, in the assay on SNB-19 and in the assay with BT-549 was > 100 µM (inactive) each time. The GI50 with SK-MEL-5, with ACHN, in the assay with SR, with M14, in the assay with NCI-H226 and in the assay with SW-620 was > 100 µM (inactive) each time. The GI50 in the assay with HCT-15 is more than 100 µM; in the assay on A549, > 100 µM (inactive); with UACC-257, > 100 µM (inactive); with SF-268 it was > 100 µM (inactive).
With `COc1c2cc(C(C)(C)C)cc1Cc1cccc(c1OCc1cccc([N+](=O)[O-])c1)Cc1cc(C(C)(C)C)cc(c1OC)Cc1cccc(c1OCc1cccc([N+](=O)[O-])c1)Cc1cc(C(C)(C)C)cc(c1OC)Cc1cccc(c1OCc1cccc([N+](=O)[O-])c1)C2`, the GI50 in the assay on SN12C, with K562, in the assay on MDA-MB-435, in the assay with U-251, in the assay on HOP-92 and in the assay with SNB-19 was > 50 µM (inactive) throughout. Also, the GI50 with BT-549 was 0.005 µM (active); in the assay with SK-MEL-5, > 50 µM (inactive); with RXF 393, > 50 µM (inactive); in the assay with ACHN, > 50 µM (inactive); in the assay with SR, > 50 µM (inactive); in the assay on M14 it was > 50 µM (inactive). Besides, the GI50 in the assay with SW-620 is > 50 µM (inactive); with HCT-15, more than 50 µM; with A549, > 50 µM (inactive); with UACC-257, > 50 µM (inactive); in the assay with SF-268, > 50 µM (inactive).
Consider `O=c1oc2c(Cl)cc(Cl)cc2cc1C1=CSC2=NCCN12`, for which the GI50 with SN12C was 51.8 µM (inactive); with K562, 34.4 µM (inactive); with MDA-MB-435, 32 µM (inactive); with U-251 it was 44.7 µM (inactive); in the assay on OVCAR-4, 39.7 µM (inactive); in the assay on HOP-92, 28.6 µM (inactive). In addition, the GI50 was 44.8 µM (inactive) in the assay on SNB-19; 26 µM (inactive) in the assay on BT-549; 27.4 µM (inactive) in the assay on SK-MEL-5; 34.2 µM (inactive) with RXF 393; 49.7 µM (inactive) in the assay on ACHN; 40.6 µM (inactive) in the assay with SR. The GI50 in the assay on M14 is 55.2 µM (inactive); in the assay with SW-620, 50.5 µM (inactive); with HCT-15, 44.7 µM; with A549 it was 64.3 µM (inactive); with UACC-257, > 100 µM (inactive).
`CC(C(=O)O)/C(=C\c1ccc2c(c1)OCO2)C(=O)O` (stereo not drawn): the GI50 is > 100 µM (inactive) in the assay on Hs-578T; > 100 µM (inactive) in the assay on SN12C; > 92.5 µM (inactive) in the assay with K562; > 100 µM (inactive) in the assay on MDA-MB-435; > 100 µM (inactive) in the assay with U-251; > 100 µM (inactive) in the assay with OVCAR-4. In addition, the GI50 in the assay on HOP-92, in the assay with SNB-19, in the assay with BT-549, in the assay on SK-MEL-5, with RXF 393 and in the assay on ACHN was > 100 µM (inactive) in each case. Also, the GI50 with M14 was > 100 µM (inactive); with NCI-H226 it was > 77.6 µM (inactive); with SW-620, > 100 µM (inactive); with HCT-15 it was more than 100 µM; in the assay on A549 it was > 100 µM (inactive); in the assay on UACC-257, > 100 µM (inactive). Further, in the assay with SF-268, the GI50 is > 100 µM (inactive).
As for `CCN(CC)CCO/N=C1/C=C2CCC3C(CC[C@@]4(C)C3CC[C@]4(C)O)[C@@]2(C)CC1` (stereo partly drawn), the GI50 is 5.12 µM (inactive) with Hs-578T; 4.15 µM (inactive) in the assay with SN12C; 4.48 µM (inactive) in the assay on K562; 1.69 µM (inactive) in the assay on MDA-MB-435; 3.44 µM (inactive) in the assay on U-251; 17.5 µM (inactive) in the assay with OVCAR-4. In addition, the GI50 in the assay on HOP-92 was 4.9 µM (inactive); with SNB-19, 11.6 µM (inactive); in the assay with BT-549, 11.7 µM (inactive); in the assay with SK-MEL-5, 12.5 µM (inactive); in the assay on RXF 393, 15.5 µM (inactive); in the assay on ACHN it was 5.87 µM (inactive). In addition, the GI50 in the assay with M14 is 8.79 µM (inactive); in the assay with NCI-H226, 2.49 µM (inactive); in the assay with HCT-15, 2.29 µM; in the assay on A549, 7.36 µM (inactive); in the assay with UACC-257, 4.9 µM (inactive); with SF-268, 8.09 µM (inactive).
In the case of `COc1cc(-c2c3c(cc4c2OCO4)[C@@H](Nc2ccc4c(c2)Cc2cc(N[C@@H]5c6cc7c(cc6C(c6cc(OC)c(O)c(OC)c6)[C@H]6C(=O)OC[C@H]56)OCO7)ccc2-4)[C@H]2COC(=O)[C@@H]2C3)cc(OC)c1O` (stereo partly drawn), the GI50 was > 100 µM (inactive) in the assay on Hs-578T; > 100 µM (inactive) in the assay with SN12C; 13.7 µM (inactive) with MDA-MB-435; 26.7 µM (inactive) with U-251; 10.2 µM (inactive) with HOP-92; 36 µM (inactive) with SNB-19. For the same compound, the GI50 is 35.1 µM (inactive) in the assay on BT-549; 18.5 µM (inactive) in the assay with SK-MEL-5; 47.8 µM (inactive) with ACHN; 11.6 µM (inactive) in the assay with SR; 21.9 µM (inactive) in the assay on M14; 43.5 µM (inactive) with NCI-H226. Besides, the GI50 with SW-620 is 49.8 µM (inactive); with HCT-15, 43.8 µM; with A549, 47.2 µM (inactive); with UACC-257, 48.8 µM (inactive); with SF-268 it was 51.2 µM (inactive).

The record behind these values is ChEMBL document CHEMBL1201862, “PubChem BioAssay data set” (2004).
